Here are results for 39 molecules from patent publication USRE45173E1, “Inhibitors of CYP 17” (Novartis AG, priority 2009, dated 2014).

Structures are written as SMILES. pIC50: −log10 of the molar value. Some results are limits rather than exact numbers.

Chain of recombinant human CYP17 enzyme (P05093 whole entry): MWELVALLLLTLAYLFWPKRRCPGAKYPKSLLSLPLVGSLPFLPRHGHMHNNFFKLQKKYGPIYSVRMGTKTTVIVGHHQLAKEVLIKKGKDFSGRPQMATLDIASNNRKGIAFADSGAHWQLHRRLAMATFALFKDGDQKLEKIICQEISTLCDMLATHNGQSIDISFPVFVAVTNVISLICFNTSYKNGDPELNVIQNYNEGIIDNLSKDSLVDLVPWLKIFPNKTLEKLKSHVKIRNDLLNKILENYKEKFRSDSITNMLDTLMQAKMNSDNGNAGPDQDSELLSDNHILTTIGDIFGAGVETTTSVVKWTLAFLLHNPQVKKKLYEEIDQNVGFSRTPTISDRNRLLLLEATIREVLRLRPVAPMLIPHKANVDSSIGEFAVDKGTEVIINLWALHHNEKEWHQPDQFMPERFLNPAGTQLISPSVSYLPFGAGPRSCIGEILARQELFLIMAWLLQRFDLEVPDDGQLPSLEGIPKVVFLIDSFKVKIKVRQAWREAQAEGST
Chain of rat CYP17 lyase (P11715 whole entry): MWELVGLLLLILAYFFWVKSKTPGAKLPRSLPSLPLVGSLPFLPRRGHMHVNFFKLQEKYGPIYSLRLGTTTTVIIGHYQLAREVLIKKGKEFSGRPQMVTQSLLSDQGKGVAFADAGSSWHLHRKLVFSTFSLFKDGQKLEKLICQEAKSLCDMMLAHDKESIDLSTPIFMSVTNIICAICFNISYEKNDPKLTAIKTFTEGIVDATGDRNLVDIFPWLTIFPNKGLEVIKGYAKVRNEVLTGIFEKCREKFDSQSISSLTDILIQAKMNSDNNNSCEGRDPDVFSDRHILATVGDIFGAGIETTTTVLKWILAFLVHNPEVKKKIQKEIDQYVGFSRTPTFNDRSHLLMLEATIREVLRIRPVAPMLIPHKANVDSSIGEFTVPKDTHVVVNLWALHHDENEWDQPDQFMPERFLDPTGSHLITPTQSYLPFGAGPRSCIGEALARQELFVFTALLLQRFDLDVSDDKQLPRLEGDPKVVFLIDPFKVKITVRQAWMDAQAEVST

One test concerns the target recombinant human CYP17 enzyme (Homo sapiens (Human), UniProt P05093). Kind of test: Cytochrome P450, 17-20 lyase (CYP17-lyase) assay, tritiated acetic acid release from 17-α-hydroxy pregnenolone [21-3H]. The class given is biochemical. As to conditions: human CYP17, substrate 0.25 μM; read-out: Lyase IC 50 nM Human/Rat (Human). The method, boiled down: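 Membranes of cells expressing human CYP17 incubated 90 min at room temperature with [21-3H]17α-hydroxypregnenolone and 4.2 mM NADPH in 50 mM phosphate pH 7.5. Released tritiated acetic acid separated from steroids by charcoal and counted by scintillation; IC50 from sigmoidal fit of % inhibition.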
Regarding `Cc1ccncc1-n1ccn(-c2ccc(F)c(C(F)F)c2)c1=O` [Example 91B, 1-(3-Difluoromethyl-4-fluoro-phenyl)-3-(4-methyl-pyridin-3-yl)-1,3-dihydro-imidazol-2-one], the IC50 stood at 22 nM. Still for that read-out and setting: the result for `O=C1N(c2ccc3ncsc3c2)CCN1c1cnccc1C(F)(F)F` [Example 128A, 1-Benzothiazol-6-yl-3-(4-trifluoromethyl-pyridin-3-yl)-imidazolidin-2-one] reads 44 nM. On to `N#Cc1ccncc1N1CCN(c2ccc3ncsc3c2)C1=O` [Example 129A], for which the IC50 amounted to 202 nM. With `CC1(C)CN(c2ccc3ncsc3c2)C(=O)N1c1cccnc1` [Example 164A, 1-Benzothiazol-6-yl-4,4-dimethyl-3-pyridin-3-yl-imidazolidin-2-one], the IC50 worked out at 70 nM. For the molecule `Cc1ccncc1N1C(=O)N(c2ccc3ncsc3c2)CC1C` (stereo not shown) [Example 167A, 1-Benzothiazol-6-yl-4-methyl-3-(4-methyl-pyridin-3-yl)-imidazolidin-2-one], the IC50 turned out to be 38 nM. On the same count and under the same terms, the result for `Cc1ccncc1N1CCN(c2ccnc(C(F)(F)F)c2)C1=O` [Example 148A, 1-(4-Methyl-pyridin-3-yl)-3-(2-trifluoromethyl-pyridin-4-yl)-imidazolidin-2-one] reads 25 nM; that for `Cc1ccncc1N1CCN(c2ccnc(N3CCCC3)c2)C1=O` [Example 85A, 1-(4-Methyl-pyridin-3-yl)-3-(2-pyrrolidin-1-yl-pyridin-4-yl)-imidazolidin-2-one], 1260 nM; that for `Cc1cc(N2CCN(c3cnccc3C)C2=O)ccn1` [Example 100A, 1-(4-Methyl-pyridin-3-yl)-3-(2-methyl-pyridin-4-yl)-imidazolidin-2-one], 46 nM. The same measure, in the same setting: the result for `Cc1ccncc1N1CCN(c2ccc(F)c(F)c2)C1=O` [Example 45A, 1-(3,4-Difluoro-phenyl)-3-(4-methyl-pyridin-3-yl)-imidazolidin-2-one] reads 27 nM. As to `Cc1ccncc1N1CCN(c2ccc3c(C)noc3c2)C1=O` [Example 111A, 1-(3-Methyl-benzo[d]isoxazol-6-yl)-3-(4-methyl-pyridin-3-yl)-imidazolidin-2-one], the IC50 was found to be 106 nM. Same read-out and setting: the result for `Cc1ccncc1N1CCN(c2ccc(C#N)c(Cl)c2)C1=O` [Example 112A, 2-Chloro-4-[3-(4-methyl-pyridin-3-yl)-2-oxo-imidazolidin-1-yl]-benzonitrile] reads 28 nM. Still for that read-out and setting: the result for `Cc1cc(N2CCN(c3cnccc3C)C2=O)cs1` [Example 92B, 1-(4-Methyl-pyridin-3-yl)-3-(5-methyl-thiophen-3-yl)-imidazolidin-2-one] reads 12 nM; that for `Cc1ccncc1N1CC(C)N(c2ccc3ncsc3c2)C1=O` (stereo not shown) [Example 166A, 3-Benzothiazol-6-yl-4-methyl-1-(4-methyl-pyridin-3-yl)-imidazolidin-2-one], 32 nM. On the same count and under the same terms, the result for `Cc1ccncc1-n1ccn(-c2ccc3ncsc3c2)c1=O` [Example 142A, 1-Benzothiazol-6-yl-3-(4-methyl-pyridin-3-yl)-1,3-dihydro-imidazol-2-one] reads 21 nM; that for `Cc1cc(N2CCN(c3cnccc3C)C2=O)ccc1F` [Example 59A, 1-(4-Fluoro-3-methyl-phenyl)-3-(4-methyl-pyridin-3-yl)-imidazolidin-2-one], 17 nM. For the molecule `Cc1c(Cl)cncc1N1CCN(c2ccc3ncsc3c2)C1=O` [Example 151A, 1-Benzothiazol-6-yl-3-(5-chloro-4-methyl-pyridin-3-yl)-imidazolidin-2-one], the IC50 is 13.3 nM. Same read-out and setting: the result for `Cc1ccncc1N1CCN(c2ccc(C#N)c(F)c2)C1=O` [Example 140A, 2-Fluoro-4-[3-(4-methyl-pyridin-3-yl)-2-oxo-imidazolidin-1-yl]-benzonitrile] reads 97 nM; that for `Cc1ccncc1N1CCN(c2ccc3[nH][nH]c(=O)c3c2)C1=O` [Example 117A, 5-[3-(4-Methyl-pyridin-3-yl)-2-oxo-imidazolidin-1-yl]-1,2-dihydro-indazol-3-one], 94 nM; that for `Cc1cccc(N2CCN(c3cnccc3C(F)(F)F)C2=O)c1` [Example 131A, 1-m-Tolyl-3-(4-trifluoromethyl-pyridin-3-yl)-imidazolidin-2-one], 103 nM.

As for `Cc1nc2ccc(N3CCN(c4cnccc4C)C3=O)cc2s1` [Example 105A, 1-(2-Methyl-benzothiazol-6-yl)-3-(4-methyl-pyridin-3-yl)-imidazolidin-2-one], the IC50 amounted to 1470 nM. For `Cc1ccncc1N1CCN(c2cnsc2)C1=O` [Example 190A, 1-Isothiazol-4-yl-3-(4-methyl-pyridin-3-yl)-imidazolidin-2-one], the IC50 was 89 nM.

Consider `Cc1ccncc1N1CCN(c2ccc3[nH]cnc3c2)C1=O` [Example 108A, 1-(1H-Benzoimidazol-5-yl)-3-(4-methyl-pyridin-3-yl)-imidazolidin-2-one], for which the IC50 was 363 nM.

As for `Cc1ccncc1N1CCN(c2ccc(F)c(C#N)c2)C1=O` [Example 103A, 2-Fluoro-5-[3-(4-methyl-pyridin-3-yl)-2-oxo-imidazolidin-1-yl]-benzonitrile], the IC50 is 19 nM. Still for that read-out and setting: the result for `Cc1ccncc1N1CCN(c2cc3c(C)nccc3s2)C1=O` [Example 194A] reads 21 nM. Same read-out and setting: the result for `Cc1ccncc1N1CCN(c2ccc(Cl)c(F)c2)C1=O` [Example 54A, 1-(4-Chloro-3-fluoro-phenyl)-3-(4-methyl-pyridin-3-yl)-imidazolidin-2-one] reads 15 nM; that for `Cc1ccncc1N1CCN(c2cccc(Cl)c2)C1=O` [Example 88A, 1-(3-Chloro-phenyl)-3-(4-methyl-pyridin-3-yl)-imidazolidin-2-one], 12 nM. Still for that read-out and setting: the result for `O=C1N(c2ccc3ncsc3c2)CCN1c1cnccc1Cl` [Example 84A, 1-Benzothiazol-6-yl-3-(4-chloro-pyridin-3-yl)-imidazolidin-2-one] reads 85 nM; that for `Cc1ccncc1N1CCN(c2cn(C)c3ccc(Cl)cc23)C1=O` [Example 137A, 1-(5-Chloro-1-methyl-1H-indol-3-yl)-3-(4-methyl-pyridin-3-yl)-imidazolidin-2-one], 1550 nM.

The same test, now with this note: human CYP17, substrate 0.25 μM; read-out: Lyase IC 50 Human/Rat (Human).
Regarding `O=C1N(c2cnc3[nH]ccc3c2)CCN1c1ccc2ncsc2c1` [Example 187A, 1-Benzothiazol-6-yl-3-(1H-pyrrolo[2,3-b]pyridin-5-yl)-imidazolidin-2-one], the pIC50 is below 5.00.

Regarding `CC(C)(O)c1ccncc1N1CCN(c2ccc3ncsc3c2)C1=O` [Example 156A, 1-(benzo[d]thiazol-6-yl)-3-(4-(2-hydroxypropan-2-yl)pyridin-3-yl)imidazolidin-2-one], the pIC50 is below 5.00. The same measure, in the same setting: the result for `Cc1ccc(N2CCN(c3ccc4ncsc4c3)C2=O)cn1` [Example 127A, 1-Benzothiazol-6-yl-3-(6-methyl-pyridin-3-yl)-imidazolidin-2-one] reads below 5.00.

A further test has as its target rat CYP17 lyase (Rattus norvegicus (Rat), UniProt P11715). The test is described as follows: rat CYP 17 Lyase model, rat testes microsomes as the source. The class given is biochemical. Conditions: 100 nM compound; read-out: rCYP17 Lyase % Inh @ 100 nM. The procedure:
For routine screening, the assay was set up with 16 μg of enzyme in 50 μL reaction volume. 17α-hydroxy pregnenolone [21-3H] was added to a final concentration of 0.25 μM. NADPH is used at a final concentration of 4.2 mM. Total reaction volume was made up to 50 μL with 50 mM Phosphate buffer pH 7.5. The reaction mixture was incubated at room temperature for 90 minutes with gentle shaking. The reaction was stopped by the addition of 100 μL of buffer. 500 μL of 5% freshly prepared activated charcoal was added to the solution and mixed well by vortexing. The samples were centrifuged at 17568×g for 5 minutes. (14000 rpm). The supernatant was carefully transferred to fresh tube and 1.3 mL of scintillation fluid was added, mixed by vortexing.
The radioactivity was measured in a 1450 MicroBeta TriLux™ scintillation counter from Wallac-Perkin Elmer®, USA. The measurements were carried out in 2.0 mL Eppendorforf™ tubes. Each tube was counted for 1 minute. The amount of tritiated acetic acid released is proportional to the lyase activity. Percent lyase activity in presence of inhibitor was calculated using the formula given below.
[formula] • Sample: Enzyme reaction in presence of inhibitor. • Positive control: Enzyme reaction without inhibitor but containing DMSO at 1% final concentration. • Blank-Contains all reagents except enzyme. % Inhibition=100%−% Lyase activity
For IC50 determination, the % inhibition was plotted as a function of inhibitor concentration. The data was fitted to sigmoidal equation using Graphpad Prism® software IV to generate IC50 values.
For the rat CYP 17 Lyase Model:
The same procedure described above was used but using rat testes microsomes as the source and with a substrate concentration of 0.5 μM.
Regarding `O=C1N(c2cccnc2)CCN1c1ccc2scnc2c1` [Example 9A, 1-Benzothiazol-5-yl-3-pyridin-3-yl-imidazolidin-2-one], the inhibition at 0.1 µM turned out to be 18%. The same measure, in the same setting: the result for `O=C1N(c2cncc(Cl)c2)CCN1c1ccc2ccccc2c1` [Example 80A] reads 57%. The same measure, in the same setting: the result for `O=C1N(c2cccnc2)CCCN1c1ccc2ccccc2c1` [Example 10A, 1-Naphthalen-2-yl-3-pyridin-3-yl-tetrahydro-pyrimidin-2-one] reads 11%.

On to `COc1cncc(N2CCN(c3cnccc3C)C2=O)c1` [Example 32A, 1-(5-Methoxy-pyridin-3-yl)-3-(4-methyl-pyridin-3-yl)-imidazolidin-2-one], for which the inhibition at 0.1 µM came out at 73%. The same measure, in the same setting: the result for `CC(O)c1ccncc1N1CCN(c2ccc3ncsc3c2)C1=O` (stereo not shown) [Example 195A, 1-Benzothiazol-6-yl-3-[4-(1-hydroxyethyl)-pyridin-3-yl]-imidazolidin-2-one] reads 8%; that for `Cc1cc(Cl)nc2ccc(N3CCN(c4cccnc4)C3=O)cc12` [Example 11A, 1-(2-Chloro-4-methyl-quinolin-6-yl)-3-pyridin-3-yl-imidazolidin-2-one], 59%; that for `COc1ccc2cc(N3CCN(c4cccnc4)C3=O)ccc2c1` [Example 3A, 1-(6-Methoxy-naphthalen-2-yl)-3-pyridin-3-O-imidazolidin-2-one], 31%.

Take `O=C1N(c2cncc(F)c2)CCN1c1ccc2ccccc2c1` [Example 81A, 1-(5-Fluoro-pyridin-3-yl)-3-naphthalen-2-yl-imidazolidin-2-one]: the inhibition at 0.1 µM turned out to be 82%.

The test is the same for the next values; noted with them: rat testes microsomes, substrate 0.5 μM; read-out: Lyase IC 50 nM Human/Rat (Rat).
Regarding `Cc1cc(Cl)nc2ccc(N3CCN(c4cccnc4)C3=O)cc12` [Example 11A, 1-(2-Chloro-4-methyl-quinolin-6-yl)-3-pyridin-3-yl-imidazolidin-2-one], the IC50 came out at 97 nM.
